From ChEMBL document CHEMBL1932967, “Synthesis and biological evaluation of novel derivatives of gambogic acid as anti-hepatocellular carcinoma agents” (Bioorg Med Chem Lett, 2012)
In brackets after ≈: the same amount, converted by molar mass. Activity calls are given as the source filed them. The calls are words filed in the database; no cut-off is given here.

Columns and labels:
[1] = tested on: HepG2; test: cells; details: Homo sapiens, HepG2, 72 h
Description: Cytotoxicity against human HepG2 cells after 72 hrs by MTT assay

[2] = tested on: Bel-7402; test: Cytotoxicity against human Bel7402 cells after 72 hrs by MTT assay; type: functional, cell-based; details: Bel-7402, 72 h
[3] = Aqueous solubility of the compound; type: physicochemical; details: water (aqueous)
[4] = tested on: SMMC-7721; test: Cytotoxicity against human SMMC7721 cells after 72 hrs by MTT assay; type: functional, cell-based; details: SMMC-7721, 72 h
[5] = Cytotoxicity against human Bel7404 cells after 72 hrs by MTT assay; type: functional, cell-based; details: BEL-7404, 72 h
[6] = Cytotoxicity against human QGY7701 cells after 72 hrs by MTT assay; type: functional, cell-based; details: QGY7701, 72 h
[7] = tested on: Bel-7402; test: Induction of apoptosis in human Bel7402 cells assessed as pre-necrotic cells at 0.4 uM after 48 hrs using V-FITC and propidium iodide staining by flow cytometry (reference value: 0.7 %); type: functional
[8] = tested on: Bel-7402; test: Induction of apoptosis in human Bel7402 cells assessed as viable cells at 0.025 uM after 48 hrs using V-FITC and propidium iodide staining by flow cytometry (reference value: 95.7 %); type: functional; details: Bel-7402, 48 h, read-out: Activity
[9] = tested on: Bel-7402; test: Induction of apoptosis in human Bel7402 cells assessed as pre-necrotic cells at 0.025 uM after 48 hrs using V-FITC and propidium iodide staining by flow cytometry (reference value: 0.7 %); type: functional
[10] = tested on: Bel-7402; test: Induction of apoptosis in human Bel7402 cells assessed as viable cells at 0.4 uM after 48 hrs using V-FITC and propidium iodide staining by flow cytometry (reference value: 95.7 %); type: functional; details: Bel-7402, 48 h, read-out: Activity
[11] = tested on: Bel-7402; test: Induction of apoptosis in human Bel7402 cells assessed as late apoptotic cells at 0.1 uM after 48 hrs using V-FITC and propidium iodide staining by flow cytometry (reference value: 2.2 %); type: functional
[12] = Cytotoxicity against human HL-7702 cells at 1.235 uM after 72 hrs by MTT assay; type: cell-based; details: l02, 72 h
[13] = tested on: Bel-7402; test: Induction of apoptosis in human Bel7402 cells assessed as early apoptotic cells at 0.4 uM after 48 hrs using V-FITC and propidium iodide staining by flow cytometry (reference value: 1.4 %); type: functional
[14] = tested on: Bel-7402; test: Induction of apoptosis in human Bel7402 cells assessed as viable cells at 0.1 uM after 48 hrs using V-FITC and propidium iodide staining by flow cytometry (reference value: 95.7 %); type: functional; details: Bel-7402, 48 h, read-out: Activity
[15] = tested on: Bel-7402; test: Induction of apoptosis in human Bel7402 cells assessed as early apoptotic cells at 0.025 uM after 48 hrs using V-FITC and propidium iodide staining by flow cytometry (reference value: 1.4 %); type: functional
[16] = tested on: Bel-7402; test: Ratio of Taxol IC50 to compound IC50 for human Bel7402 cells; type: functional
[17] = tested on: Bel-7402; test: Ratio of Gambogic acid IC50 to compound IC50 for human Bel7402 cells; type: functional
[18] = tested on: Bel-7402; test: Induction of apoptosis in human Bel7402 cells assessed as pre-necrotic cells at 0.1 uM after 48 hrs using V-FITC and propidium iodide staining by flow cytometry (reference value: 0.7 %); type: functional
[19] = tested on: Bel-7402; test: Induction of apoptosis in human Bel7402 cells assessed as late apoptotic cells at 0.025 uM after 48 hrs using V-FITC and propidium iodide staining by flow cytometry (reference value: 2.2 %); type: functional
[20] = tested on: Bel-7402; test: Induction of apoptosis in human Bel7402 cells assessed as early apoptotic cells at 0.1 uM after 48 hrs using V-FITC and propidium iodide staining by flow cytometry (reference value: 1.4 %); type: functional
[21] = tested on: Bel-7402; test: Cytotoxicity against human Bel7402 cells at 1.235 uM after 72 hrs by MTT assay; type: functional, cell-based
[22] = tested on: Bel-7402; test: Induction of apoptosis in human Bel7402 cells assessed as late apoptotic cells at 0.4 uM after 48 hrs using V-FITC and propidium iodide staining by flow cytometry (reference value: 2.2 %); type: functional
[23] = tested on: Bel-7402; test: Induction of apoptosis in human Bel7402 cells after 48 hrs using V-FITC and propidium iodide staining by flow cytometry; type: functional, cell-based

Structure (SMILES) | IC50 [1] [nM] | solubility [3] [µg/mL] | IC50 [2] [nM] | IC50 [4] [nM] | IC50 [5] [nM] | IC50 [6] [nM] | also measured
CC(C)=CCC[C@]1(C)C=Cc2c(O)c3c(c(CC=C(C)C)c2O1)O[C@]12C(=C[C@@H]4C[C@H]1C(C)(C)O[C@@]2(C/C=C(/C)C(=O)OCCN1CCCCC1)C4=O)C3=O | 3180 | 870 (≈ 1180 µM) | 1720 | 6520 | 7230 | 700 | 
CC(C)=CCC[C@]1(C)C=Cc2c(O)c3c(c(CC=C(C)C)c2O1)O[C@]12C(=C[C@@H]4C[C@H]1C(C)(C)O[C@@]2(C/C=C(/C)C(=O)OCCN1CCN(CCO)CC1)C4=O)C3=O | 9900 | 1260 (≈ 1610 µM) | 3360 | 8570 | 10200 | 1860 | 
CC(C)=CCC[C@]1(C)C=Cc2c(O)c3c(c(CC=C(C)C)c2O1)O[C@]12C(=C[C@@H]4C[C@H]1C(C)(C)O[C@@]2(C/C=C(/C)C(=O)O)C4=O)C3=O [GAMBOGIC ACID] | 1170 | 13 (≈ 20.7 µM) | 750 | 1130 | 4700 | 240 | 
CC(C)=CCC[C@]1(C)C=Cc2c(O)c3c(c(CC=C(C)C)c2O1)O[C@]12C(=C[C@@H]4C[C@H]1C(C)(C)O[C@@]2(C/C=C(/C)C(=O)OCCCN1CCN(CCO)CC1)C4=O)C3=O | 3250 | 1230 (≈ 1540 µM) | 3120 | 6610 | 8080 | 960 | 
CC(C)=CCC[C@]1(C)C=Cc2c(O)c3c(c(CC=C(C)C)c2O1)O[C@]12C(=C[C@@H]4C[C@H]1C(C)(C)O[C@@]2(C/C=C(/C)C(=O)OCCCCN1CCNCC1)C4=O)C3=O | 24100 | 1320 (≈ 1720 µM) | 16700 | 23500 | 28600 | 4120 | 
CC(C)=CCC[C@]1(C)C=Cc2c(O)c3c(c(CC=C(C)C)c2O1)O[C@]12C(=C[C@@H]4C[C@H]1C(C)(C)O[C@@]2(C/C=C(/C)C(=O)OCCCCN1CCCCC1)C4=O)C3=O | 5590 | 780 (≈ 1020 µM) | 3140 | 4530 | 6460 | 4360 | 
CC(C)=CCC[C@]1(C)C=Cc2c(O)c3c(c(CC=C(C)C)c2O1)O[C@]12C(=C[C@@H]4C[C@H]1C(C)(C)O[C@@]2(C/C=C(/C)C(=O)OCCCN1CCNCC1)C4=O)C3=O | 19100 | 1350 (≈ 1790 µM) | 18100 | 26200 | 27600 | 4380 | 
CC(C)=CCC[C@]1(C)C=Cc2c(O)c3c(c(CC=C(C)C)c2O1)O[C@]12C(=C[C@@H]4C[C@H]1C(C)(C)O[C@@]2(C/C=C(/C)C(=O)OCCN1CCNCC1)C4=O)C3=O | 20100 | 1360 (≈ 1840 µM) | 19700 | 28400 | 31100 | 5430 | 
CC(C)=CCC[C@]1(C)C=Cc2c(O)c3c(c(CC=C(C)C)c2O1)O[C@]12C(=C[C@@H]4C[C@H]1C(C)(C)O[C@@]2(C/C=C(/C)C(=O)OCCN1CCOCC1)C4=O)C3=O | 940 | 1230 (≈ 1660 µM) | 590 | 1590 | 1990 | 410 | 

More lines, main results first:

IC50 [1] [nM] | solubility [3] [µg/mL] | Structure (SMILES) | IC50 [2] [nM] | IC50 [4] [nM] | IC50 [5] [nM] | IC50 [6] [nM] | also measured
67 | 1210 (≈ 1600 µM) | CC(C)=CCC[C@]1(C)C=Cc2c(O)c3c(c(CC=C(C)C)c2O1)O[C@]12C(=C[C@@H]4C[C@H]1C(C)(C)O[C@@]2(C/C=C(/C)C(=O)OCCCN1CCOCC1)C4=O)C3=O | 45 | 730 | 1250 | 120 | Activity [7]: 0.5%; viability at 0.025 µM [8]: 87.8%; Activity [9]: 1.4%; viability at 0.4 µM [10]: 49.6%; Activity [11]: 4.6%; Activity [12]: Toxic; Activity [13]: 44.9%; viability at 0.1 µM [14]: 72.2%; Activity [15]: 3%; Ratio IC50 [16]: 27.8; Ratio IC50 [17]: 16.7; Activity [18]: 0.4%; Activity [19]: 7.8%; Activity [20]: 22.8%; Activity [21]: Active; Activity [22]: 5%; Activity [23]: Dose-dependent effect
50 |  | CC(=O)O[C@H]1C(=O)[C@@]2(C)[C@H]([C@H](OC(=O)c3ccccc3)[C@]3(O)C[C@H](OC(=O)[C@H](O)[C@@H](NC(=O)c4ccccc4)c4ccccc4)C(C)=C1C3(C)C)[C@]1(OC(C)=O)CO[C@@H]1C[C@@H]2O [PACLITAXEL] | 1250 | 880 | 820 | 40 | 
1510 | 1170 (≈ 1520 µM) | CC(C)=CCC[C@]1(C)C=Cc2c(O)c3c(c(CC=C(C)C)c2O1)O[C@]12C(=C[C@@H]4C[C@H]1C(C)(C)O[C@@]2(C/C=C(/C)C(=O)OCCCCN1CCOCC1)C4=O)C3=O | 2130 | 1540 | 2110 | 530 | 
1160 | 1210 (≈ 1490 µM) | CC(C)=CCC[C@]1(C)C=Cc2c(O)c3c(c(CC=C(C)C)c2O1)O[C@]12C(=C[C@@H]4C[C@H]1C(C)(C)O[C@@]2(C/C=C(/C)C(=O)OCCCCN1CCN(CCO)CC1)C4=O)C3=O | 1100 | 3520 | 9650 | 2560 | 
150 | 840 (≈ 1110 µM) | CC(C)=CCC[C@]1(C)C=Cc2c(O)c3c(c(CC=C(C)C)c2O1)O[C@]12C(=C[C@@H]4C[C@H]1C(C)(C)O[C@@]2(C/C=C(/C)C(=O)OCCCN1CCCCC1)C4=O)C3=O | 86 | 1060 | 1420 | 430 | Ratio IC50 [16]: 14.5; Ratio IC50 [17]: 8.7
